# Laboratory results from patent US9505729B2, “Isoxazole analogs as mediators of transcriptional induction of E-cadherin” (Vanderbilt University, priority 2014, dated 2016).
# System: E-cadherin expression in SW620 cells
# Assay: In-cell Western (ICW) cell-based functional assay of E-cadherin expression in SW620 cells
# Conditions: Homo sapiens, SW-620; for fold induction at 10 µM: change in expression level of E-cadherin in response to 10 μM compound, SW620 cells, 24 hours; for EC50: inducement of E-cadherin expression in SW620 cells
# Description: SW620 and H520 cells (5×10^4/100 μL) were seeded in a 96-well plate prior to treatment. Cells were treated with 10 μM concentration of synthesized compound in quadruplicate for 24 hours in RPMI 1640 supplemented medium and 100 μg/mL penicillin-streptomycin. The cells were then fixed with 100% methanol for 20 minutes at 4° C. The wells were then washed 2 times with PBS, permeabilized in 2% bovine serum albumin (BSA) and 0.2% TritonX-100 in PBS for 30 minutes at room temperature with gentle agitation, and blocked in LI-COR blocking buffer for 30 minutes at room temperature with gentle agitation. The cells were then incubated with the following primary antibodies: anti-E-Cadherin (1:500) and anti-α-Tubulin (1:1000) diluted in blocking buffer (1:1 dilution in PBS) for 2 hours at room temperature with gentle agitation. The cells were washed 4 times in PBS-T for 5 minutes each, and then incubated with the following secondary antibodies conjugated to a fluorescent entity: IRDye 800-conjugated goat anti-rabbit IgG (1:1000) and IRDye-700-conjugated goat anti-mouse IgG (1:2000) in blocking buffer (1:1 dilution in PBS) with gentle agitation for 1 h at room temperature. The cells were washed 4 times in PBS-T for 5 minutes each followed by a single wash with PBS. All liquid was removed from the wells and the plates were visualized and analyzed on the Odyssey IR imaging system (LI-COR Biosciences).
# The assay was further optimized in the following manner. The cells were washed 2 times with PBS, fixed in 100% methanol at room temperature for 15 minutes, and again washed 2 times with PBS. The cells were then incubated with the following primary antibodies: anti-E-Cadherin (1:200) and anti-α-Tubulin (1:2000) diluted in ice cold 2% bovine serum albumin (BSA) and 0.2% TritonX-100 in PBS for 1 hour at room temperature with gentle agitation. The cells were washed 2 times in PBS and then incubated with the following secondary antibodies conjugated to a fluorescent entity: Licor 800-conjugated goat anti-rabbit IgG (1:2000) and IRDye-700-conjugated goat anti-mouse IgG (1:2000) in ice cold 2% BSA and 0.2% TritonX-100 in PBS with gentle agitation for 45 minutes at room temperature. The wells were washed 2 times in PBS, dried, and analyzed as previously mentioned.
# N-(3-(Arylamino)alkyl)-5-arylisoxazole-3-carboxamide analogs were synthesized as described above. Changes in expression level of E-cadherin in response to 10 μM compound in SW620 cells was determined in the cell-based functional assay as described above, and the data are shown in Table II. The compound number corresponds to the compound numbers used in Table I.
# EC50 of inducement of E-cadherin expression in SW620 cells was determined in the cell-based functional assay as described above, and the data are shown in Table III. The compound number corresponds to the compound numbers used in Table I.
SMILES,EC50 [µM],fold induction at 10 µM
"CC(=O)n1cc(CNCCCNC(=O)c2cc(-c3ccccc3)[nH]n2)c2ccccc21 [Compound 34, N-(3-(((1-acetyl-1H-indol-3-yl)methyl)amino)propyl)-5-phenyl-1H-pyrazole-3-carboxamide]",,3.58
"O=C(NCCCNCc1cnoc1)c1cc(-c2ccccc2)[nH]n1 [Compound 35, N-(3-((isoxazol-4-ylmethyl)amino)propyl)-5-phenyl-1H-pyrazole-3-carboxamide]",,3.59
"O=C(NCCCN(Cc1cnoc1)Cc1cnoc1)c1cc(-c2ccccc2)[nH]n1 [Compound 36, N-(3-(bis(isoxazol-4-ylmethyl)amino)propyl)-5-phenyl-1H-pyrazole-3-carboxamide]",12,5.77
"O=C(NCCCNc1nccc(Cl)n1)c1cc(-c2ccccc2)[nH]n1 [Compound 38, N-(3-((4-chloropyrimidin-2-yl)amino)propyl)-5-phenyl-1H-pyrazole-3-carboxamide]",22.9,7.36

# Second part, led by results:
EC50 [µM],SMILES,fold induction at 10 µM
15,"[N-]=[N+]=Nc1nccc(NCCCNC(=O)c2cc(-c3ccccc3)[nH]n2)n1 [Compound 37, N-(3-((2-azidopyrimidin-4-yl)amino)propyl)-5-phenyl-1H-pyrazole-3-carboxamide]",6.09
5.32,"[N-]=[N+]=Nc1ccnc(NCCCNC(=O)c2cc(-c3ccccc3)[nH]n2)n1 [Compound 39, N-(3-((4-azidopyrimidin-2-yl)amino)propyl)-5-phenyl-1H-pyrazole-3-carboxamide]",15.9
